Data from ChEMBL document CHEMBL1201862, “PubChem BioAssay data set” (2004).
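These data come from cells grown in 96-well plates and exposed to compound for 48 hours at five concentrations. Here, GI50 denotes the concentration required for 50% inhibition of growth.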 Calls of active or inactive are those of the source. Rule as the data show it: active = GI50 up to about 1.1 µM and inactive = higher.

Columns and labels:
Assay in all cases: NCI-60 cell line screen, 48 h
[1] = test system: 786-0
[2] = test system: COLO 205
[3] = test system: HCC 2998
[4] = test system: HCT-116
[5] = test system: HL-60
[6] = test system: HT-29
[7] = test system: K562
[8] = test system: LXFL 529
[9] = test system: M19-MEL
[10] = test system: OVCAR-5
[11] = test system: RPMI-8226
[12] = test system: SF-268
[13] = test system: SF-539
[14] = test system: SNB-78
[15] = test system: SR
[16] = test system: SW-620
[17] = test system: TK-10
[18] = test system: UACC-62
[19] = test system: SNB-75

SMILES | GI50 [1] | GI50 [2] | GI50 [3] | GI50 [4] | GI50 [5] | GI50 [6] | GI50 [7] | GI50 [8] | GI50 [9] | GI50 [10] | GI50 [11] | GI50 [12] | GI50 [13] | GI50 [14] | GI50 [15] | GI50 [16] | GI50 [17] | GI50 [18] | GI50 [19]
COCCCNC(=O)CC(=O)NCCCOC | > 100 µM (inactive) | > 100 µM (inactive) | > 100 µM (inactive) | > 100 µM (inactive) | > 100 µM (inactive) | > 100 µM (inactive) | > 100 µM (inactive) | > 100 µM (inactive) | > 100 µM (inactive) | > 100 µM (inactive) | > 100 µM (inactive) | > 100 µM (inactive) | > 100 µM (inactive) | > 100 µM (inactive) | > 100 µM (inactive) | > 100 µM (inactive) | > 100 µM (inactive) | > 100 µM (inactive) | 
O=C(/C=C/c1ccccc1)NC1C=Nc2ccc([N+](=O)[O-])cc2NC1=O (centres undefined) | > 100 µM (inactive) | 29 µM (inactive) | 34.8 µM (inactive) | 96.6 µM (inactive) | 25.3 µM (inactive) | 73.1 µM (inactive) | 27 µM (inactive) | 34.7 µM (inactive) | 38.4 µM (inactive) | 71.9 µM (inactive) |  | > 100 µM (inactive) | > 100 µM (inactive) | > 100 µM (inactive) | > 100 µM (inactive) | > 100 µM (inactive) | > 100 µM (inactive) | 44.1 µM (inactive) | > 100 µM (inactive)
CCNC(=O)O/N=C1\CCC2[C@@H]3CC=C4C[C@@H](OC5CCCCO5)CC[C@]4(C)C3CC[C@]12C (some centres undefined) | 2.31 µM (inactive) | 0.964 µM (active) | 2.89 µM (inactive) | 4.8 µM (inactive) |  | 3.16 µM (inactive) | 1.37 µM (inactive) | 1.2 µM (inactive) | 1.76 µM (inactive) | 2.48 µM (inactive) | 1.58 µM (inactive) |  | 6.19 µM (inactive) | 2.24 µM (inactive) |  | 2.45 µM (inactive) | 2 µM (inactive) | 0.733 µM (active) | 1.91 µM (inactive)
COC(=O)C(=O)C(CC(=O)Nc1c(C)cccc1C)C(=O)OC (centres undefined) | > 100 µM (inactive) |  | > 100 µM (inactive) | > 100 µM (inactive) | > 100 µM (inactive) | > 100 µM (inactive) | > 100 µM (inactive) | > 100 µM (inactive) | > 100 µM (inactive) | > 100 µM (inactive) | > 100 µM (inactive) | > 100 µM (inactive) | > 100 µM (inactive) | > 100 µM (inactive) | > 100 µM (inactive) | > 100 µM (inactive) | > 100 µM (inactive) | > 100 µM (inactive) | 
N#Cc1nc(C2OC(COC(=O)c3ccccc3)C(OC(=O)c3ccccc3)C2OC(=O)c2ccccc2)oc1N (centres undefined) | 27 µM (inactive) | 61.4 µM (inactive) | 35.6 µM (inactive) | 16.5 µM (inactive) | 7.03 µM (inactive) | 9.16 µM (inactive) | 6.12 µM (inactive) |  | 36.7 µM (inactive) | 87.7 µM (inactive) | 2.1 µM (inactive) | 15 µM (inactive) | 58.6 µM (inactive) | 22 µM (inactive) |  | 12.1 µM (inactive) | 63.5 µM (inactive) | 38.7 µM (inactive) | 11.3 µM (inactive)
CCOC(=O)C(C(=O)Cc1ccccc1)c1ccccc1 (centres undefined) | > 100 µM (inactive) | > 100 µM (inactive) |  | > 100 µM (inactive) | > 100 µM (inactive) | > 100 µM (inactive) | > 100 µM (inactive) | > 100 µM (inactive) | > 100 µM (inactive) | > 100 µM (inactive) | > 100 µM (inactive) | > 100 µM (inactive) | > 100 µM (inactive) | > 100 µM (inactive) | > 100 µM (inactive) | > 100 µM (inactive) | > 100 µM (inactive) | > 100 µM (inactive) | 80 µM (inactive)
C=C=C(Sc1ccccc1)C(C)(C)O | > 100 µM (inactive) | > 100 µM (inactive) | > 100 µM (inactive) | > 100 µM (inactive) | > 100 µM (inactive) | > 100 µM (inactive) | > 100 µM (inactive) | > 100 µM (inactive) | > 100 µM (inactive) | > 100 µM (inactive) | > 100 µM (inactive) | > 100 µM (inactive) | > 100 µM (inactive) |  | > 100 µM (inactive) | > 100 µM (inactive) | > 100 µM (inactive) | > 100 µM (inactive) | 38.6 µM (inactive)
O=C(CC1(O)C(=O)Nc2ccccc21)c1ccccc1Cl (centres undefined) | > 100 µM (inactive) | > 100 µM (inactive) |  | > 100 µM (inactive) | > 100 µM (inactive) | > 100 µM (inactive) | > 100 µM (inactive) | > 100 µM (inactive) | > 100 µM (inactive) | > 100 µM (inactive) | > 100 µM (inactive) | > 100 µM (inactive) | > 100 µM (inactive) | > 100 µM (inactive) |  | > 100 µM (inactive) | > 100 µM (inactive) | > 100 µM (inactive) | > 100 µM (inactive)
O=C(CCCCCCCCC(=O)OCC1OC(n2cnc3c(=O)[nH]cnc32)C(O)C1O)OCC1OC(n2cnc3c(=O)[nH]cnc32)C(O)C1O (centres undefined) | > 100 µM (inactive) | > 100 µM (inactive) | > 100 µM (inactive) | > 100 µM (inactive) | > 100 µM (inactive) | > 100 µM (inactive) | > 100 µM (inactive) |  | > 100 µM (inactive) | > 100 µM (inactive) | > 100 µM (inactive) | > 100 µM (inactive) | > 100 µM (inactive) | > 100 µM (inactive) |  | > 100 µM (inactive) | > 100 µM (inactive) | > 100 µM (inactive) | > 100 µM (inactive)
Cc1c(Cl)cccc1NC(=O)/C(Cl)=C(\Cl)C(=O)O | 18.4 µM (inactive) | 9.4 µM (inactive) | 20.3 µM (inactive) | 14.2 µM (inactive) |  | 19.2 µM (inactive) | 6.19 µM (inactive) | 19.8 µM (inactive) | 17 µM (inactive) | 16.9 µM (inactive) | 11.8 µM (inactive) | 22.6 µM (inactive) | 17 µM (inactive) | 20 µM (inactive) | 5.26 µM (inactive) | 19.4 µM (inactive) | 20.9 µM (inactive) | 13.2 µM (inactive) | 18.7 µM (inactive)
COC(=O)C(Cc1ccccc1)NC(=O)Cn1ccnc1[N+](=O)[O-] (centres undefined) | > 100 µM (inactive) | 77.3 µM (inactive) |  |  | > 100 µM (inactive) | > 100 µM (inactive) | > 100 µM (inactive) | > 100 µM (inactive) | 95.3 µM (inactive) | > 100 µM (inactive) | > 100 µM (inactive) | > 100 µM (inactive) | > 100 µM (inactive) |  |  | > 100 µM (inactive) | > 100 µM (inactive) | > 100 µM (inactive) | 94.8 µM (inactive)
Cc1ccc(C2=Nc3ccccc3[S+]([O-])C(c3ccc4c(c3)OCO4)C2)cc1 (centres undefined) | 19.9 µM (inactive) | 29.6 µM (inactive) | > 10 µM (inactive) | 16.6 µM (inactive) | 19.1 µM (inactive) | 17.7 µM (inactive) | 27.7 µM (inactive) | > 10 µM (inactive) | 27 µM (inactive) |  |  | 19.5 µM (inactive) | 21.2 µM (inactive) | 24.7 µM (inactive) | 22.2 µM (inactive) | 18.5 µM (inactive) | 44.7 µM (inactive) | 18.3 µM (inactive) | 88.3 µM (inactive)
CC(=O)c1cccc(NC(=O)/C(=N\NC(C)(C)C)c2c(O)c3ccccc3oc2=O)c1 | > 100 µM (inactive) | > 100 µM (inactive) | > 100 µM (inactive) | > 100 µM (inactive) | > 100 µM (inactive) | 53.2 µM (inactive) |  | > 100 µM (inactive) | 84.7 µM (inactive) |  |  | > 100 µM (inactive) | > 100 µM (inactive) |  | > 100 µM (inactive) | > 100 µM (inactive) | > 100 µM (inactive) | > 100 µM (inactive) | 39.2 µM (inactive)
COc1cc(C(=O)NO)ccc1O | > 100 µM (inactive) | > 100 µM (inactive) | > 100 µM (inactive) | > 100 µM (inactive) | > 100 µM (inactive) | > 100 µM (inactive) | > 100 µM (inactive) | > 100 µM (inactive) | > 100 µM (inactive) | > 100 µM (inactive) | > 100 µM (inactive) | > 100 µM (inactive) | 87.7 µM (inactive) | > 100 µM (inactive) |  | > 100 µM (inactive) | > 100 µM (inactive) | > 100 µM (inactive) | > 100 µM (inactive)
O=C(Cc1ccccc1)N/N=C(/c1nc2ccc([N+](=O)[O-])cc2nc1O)C(O)c1ccc(C(O)/C(=N/NC(=O)Cc2ccccc2)c2nc3ccc([N+](=O)[O-])cc3nc2O)cc1 (centres undefined) | > 100 µM (inactive) | 37.5 µM (inactive) | 27 µM (inactive) | 48.8 µM (inactive) | 7.01 µM (inactive) | 53.8 µM (inactive) | 12.4 µM (inactive) | 24.7 µM (inactive) | 58.9 µM (inactive) | 40.4 µM (inactive) | 21 µM (inactive) | 20.2 µM (inactive) | 56.8 µM (inactive) |  | > 10 µM (inactive) | 39.4 µM (inactive) | 48.1 µM (inactive) | 35.6 µM (inactive) | 31.3 µM (inactive)
CCCCCC[C@@H]1CCC2C(CO)[C@@H](O)CC[C@@H]2C1 (some centres undefined) | 19.3 µM (inactive) | 18.5 µM (inactive) | 22 µM (inactive) | 17.6 µM (inactive) |  | 18.2 µM (inactive) | 21.3 µM (inactive) | 18.5 µM (inactive) | 18.2 µM (inactive) | 18.5 µM (inactive) | 25.3 µM (inactive) | 18.1 µM (inactive) | 18.7 µM (inactive) | 19.2 µM (inactive) | 22.5 µM (inactive) | 23.1 µM (inactive) |  | 21.3 µM (inactive) | 22.8 µM (inactive)
